# Experimental data published in patent US20260001876A1, “Compounds and Their Use as PDE4 Activators” (Mironid Limited, priority 2022, published 2026).
# Legend:
# [1] = tested on: m-IMCD3 cells expressing PDE4 long forms; experiment: cAMP levels in assay media of PGE2-stimulated m-IMCD3 3D cell culture; assay type: cell-based; settings: Mus musculus, mIMCD3, compared to 100% for (DMSO + PGE2), read-out: cAMP level (% of PGE2-stimulated); for activity at 10 µM: 10 μM test compound; for activity at 3 µM: 3 μM test compound
# Procedure: (§1) HEK 293 and MDCK cells (Public Health England, Cell Culture Collections) were maintained in Dulbecco's Modified Eagle's Medium (DMEM) supplemented with 10% (v/v) fetal bovine serum (FBS) (Seralab), 2 mM L-glutamine and 100 U/mL penicillin streptomycin cocktail (ThermoFisher); termed complete media. Clonal HEK 293 cell lines were maintained in complete media supplemented with 0.6 mg/ml G418 (Enzo Life Sciences). Mouse inner medullary collecting duct (m-IMCD3) cells [American Type Culture Collection (ATCC)] were maintained in media consisting of DMEM/Hams F-12 50/50 Mix (DMEM F12; Corning) supplemented with penicillin streptomycin cocktail (100 U/mL) and FBS (10% v/v) (DMEM F12-10% FBS).
# Experiment 2: Reduction of CAMP Levels in m-IMCD3 Cell Culture Treated with PDE4 Long Form Activators
# Activation of intracellular PDE4 long forms leads to a reduction of both intracellular CAMP and externalised cAMP (Omar et al., PNAS 116:13320-13329, 2019). This reduction may be measured in the cell culture media supernatant of 3D cystic cell cultures, such as in the m-IMCD3 cell cyst suppression assay described in Experiment 3.
# Following the completion of the m-IMCD3 cell cyst suppression assay (Experiment 3), the CAMP levels in the assay media from individual or pooled assay wells was measured using a CAMP ELISA kit (Enzo Life Sciences) or a LANCE Ultra CAMP kit (PerkinElmer) according to the manufacturer's instructions.
# Treatment with PDE4 long form activators reduced CAMP levels in PGE2-stimulated m-IMCD3 cell culture.
# m-IMCD3 cells = experiment: Inhibition of PGE2-stimulated in vitro cyst formation in m-IMCD3 cells (3D culture); assay type: cell-based; settings: Mus musculus, mIMCD3, 144 h, mean cyst area, 100% for (DMSO + PGE2) and 0% for DMSO control, 6 days of culture; for activity at 10 µM: read-out: % Cyst area* after incubation with 10 μM test compound; for activity at 3 µM: read-out: % Cyst area* after incubation with 3 μM test compound
# Procedure: as §1
# Experiment 3: Inhibition of In Vitro Cyst Formation in m-IMCD3 Cells Treated with PDE4 Long Form Activators
# The mouse Inner Medullary Collecting Duct cell line (m-IMCD3) spontaneously forms cystic spheroids in 3D culture with a Type 1 collagen/Matrigel extracellular matrix. This process can be stimulated with agents which raise intracellular cAMP and is used as an in vitro model for the formation of cystic structures in the kidneys of patients with ADPKD.
# Rat Collagen I (Fisher Scientific) is prepared on ice by neutralising with 1M NaOH and diluting with a 2× volume of DMEM/F12+10% FBS. This is mixed 1:1.1 with ice cold Matrigel (Corning) for coating plates (coating mix), and 1:0.93 with Matrigel for cell plating (plating mix).
# The assay is conducted in the wells of a 96-well plate culture dish using a total volume of 130 μL of collagen/Matrigel/DMEM F12-10% FBS suspension in growth media for each matrix plug per individual well. Initially, 30 μL of collagen/Matrigel/DMEM F12-10% FBS (coating mix) is added into the well of a 96 well plate and the collagen is set to a gel by incubating at 37° C. for at least 15 minutes. A second layer of 100 μL collagen/Matrigel suspension (plating mix) containing m-IMCD3 cells (2.75×10^6 m-IMCD3 cells per 96-well plate) is layered over the coating mix and the collagen/Matrigel/cell mix again set to a gel by incubating at 37° C. Cell cultures are maintained at 37° C. in an atmosphere of 5% CO2, 95% air.
# Between 18 and 24 h after plating, test compound(s) as DMSO stock solutions [0.1% (v/v) final DMSO concentration] and PGE2 (100 nM final concentration) in DMEM F12-10% FBS are added in quadruplicate wells per condition. Media, together with the test compound and PGE2 are replenished after 2 or 3 days. After 6 days of culture z stack images of the wells are captured using the Nikon Eclipse Ti2-E microscope. Nikon General Analysis software is used to measure the following parameters in each well: the mean cyst area, the number of cysts, and the total cyst area.
# PDE4 long form activators inhibited in vitro cyst formation in m-IMCD3 cells. Data are shown in Table 4 as mean cyst area (%), compared to 100% for (DMSO+PGE2) and 0% for DMSO control.
SMILES,activity at 10 µM [1] [%],activity at 10 µM (m-IMCD3 cells) [%],activity at 3 µM [1] [%],activity at 3 µM (m-IMCD3 cells) [%]
"O=C(CC1CCC(F)(F)CC1)N1CCc2nc(N3C4CCC3CNC4)ccc2C1 [Example 40, 1-(2-(3,8-diazabicyclo[3.2.1]octan-8-yl)-7,8-dihydro-1,6-naphthyridin-6(5H)-yl)-2-(4,4-difluorocyclohexyl)ethan-1-one]",43,0,–,–
"CC(C)(C)CC(=O)N1CCc2nc(N3C4CCC3CNC4)ccc2C1 [Example 42, 1-(2-(3,8-diazabicyclo[3.2.1]octan-8-yl)-7,8-dihydro-1,6-naphthyridin-6(5H)-yl)-3,3-dimethylbutan-1-one]",–,0,28,–
"CN1CC2CCC(C1)N2c1ccc2c(n1)CN(C(=O)NC1CCC(F)(F)CC1)C2 [Example 91, N-(4,4-difluorocyclohexyl)-2-(3-methyl-3,8-diazabicyclo[3.2.1]octan-8-yl)-5,7-dihydro-6H-pyrrolo[3,4-b]pyridine-6-carboxamide]",–,-5,31,–
"O=C(CC1CCC(F)(F)CC1)N1CCc2nc(N3CCNCC3)ccc2C1 [Example 111, 2-(4,4-difluorocyclohexyl)-1-(2-(piperazin-1-yl)-7,8-dihydro-1,6-naphthyridin-6(5H)-yl)ethan-1-one]",38,-3,–,–
"O=C(CC1CCCC1)N1CCc2nc(N3CCN4CCC[C@@H]4C3)ccc2C1 [Example 112, (R)-2-cyclopentyl-1-(2-(hexahydropyrrolo[1,2-a]pyrazin-2 (1H)-yl)-7,8-dihydro-1,6-naphthyridin-6(5H)-yl)ethan-1-one]",–,-6,54,–
"O=C(CC1CCCC1)N1CCc2nc(N3CCN4CCC[C@H]4C3)ccc2C1 [Example 113, (S)-2-cyclopentyl-1-(2-(hexahydropyrrolo[1,2-a]pyrazin-2 (1H)-yl)-7,8-dihydro-1,6-naphthyridin-6(5H)-yl)ethan-1-one]",–,-4,63,–
"O=C(CC1CCCC1)N1CCc2nc(C3CCNCC3)ccc2C1 [Example 114, 2-cyclopentyl-1-(2-(piperidin-4-yl)-7,8-dihydro-1,6-naphthyridin-6(5H)-yl)ethan-1-one]",–,-2,47,–
"O=C(CC1CCCC1)N1CCc2nc(C3CCN(CCO)CC3)ccc2C1 [Example 115, 2-cyclopentyl-1-(2-(1-(2-hydroxyethyl)piperidin-4-yl)-7,8-dihydro-1,6-naphthyridin-6(5H)-yl)ethan-1-one]",–,-3,32,–
"COc1ccccc1C(=O)N1CCc2nc(N3C4CCC3CNC4)ccc2C1 [Example 121, (2-(3,8-diazabicyclo[3.2.1]octan-8-yl)-7,8-dihydro-1,6-naphthyridin-6(5H)-yl)(2-methoxyphenyl)methanone]",–,–,44,8
"Cc1ccccc1C(=O)N1CCc2nc(N3C4CCC3CNC4)ccc2C1 [Example 122, (2-(3,8-diazabicyclo[3.2.1]octan-8-yl)-7,8-dihydro-1,6-naphthyridin-6(5H)-yl)(o-tolyl)methanone]",–,–,66,-1
"CC1(CC(=O)N2Cc3ccc(N4C5CCC4CNC5)nc3C2)CCCC1 [Example 129, 1-(2-(3,8-diazabicyclo[3.2.1]octan-8-yl)-5,7-dihydro-6H-pyrrolo[3,4-b]pyridin-6-yl)-2-(1-methylcyclopentyl)ethan-1-one]",–,2,44,–
"O=C(Cc1ccccc1)N1CCc2nc(N3CCNCC3)ncc2C1 [Example 134, 2-phenyl-1-(2-(piperazin-1-yl)-7,8-dihydropyrido[4,3-d]pyrimidin-6(5H)-yl)ethan-1-one]",–,–,55,7
"N#Cc1ccc(CC(=O)N2CCc3nc(N4C5CCC4CNC5)ncc3C2)cc1 [Example 136, 4-(2-(2-(3,8-diazabicyclo[3.2.1]octan-8-yl)-7,8-dihydropyrido[4,3-d]pyrimidin-6(5H)-yl)-2-oxoethyl)benzonitrile]",–,–,38,1
"O=C(c1ccc(F)cc1)N1CCc2nc(N3CCNCC3)ncc2C1 [Example 147, (4-fluorophenyl)(2-(piperazin-1-yl)-7,8-dihydropyrido[4,3-d]pyrimidin-6(5H)-yl)methanone]",–,–,40,4
"CCN1CCN(c2ccc3c(n2)CCN(C(=O)CC(C)(C)C)C3)CC1 [Example 150, 1-(2-(4-ethylpiperazin-1-yl)-7,8-dihydro-1,6-naphthyridin-6(5H)-yl)-3,3-dimethylbutan-1-one]",–,–,49,-1
"O=C(CC1CCCC1)N1CCc2nc(N3C4CCCC3CNC4)ccc2C1 [Example 151, 1-(2-(3,9-diazabicyclo[3.3.1]nonan-9-yl)-7,8-dihydro-1,6-naphthyridin-6(5H)-yl)-2-cyclopentylethan-1-one]",–,–,51,-8
"O=C(CC1CCCC1)N1CCc2nc(N3CC4CCCC(C3)N4)ccc2C1 [Example 152, 1-(2-(3,9-diazabicyclo[3.3.1]nonan-3-yl)-7,8-dihydro-1,6-naphthyridin-6(5H)-yl)-2-cyclopentylethan-1-one]",–,–,41,-6
"O=C(CC1CCCC1)N1CCc2nc(N3C[C@@H]4C[C@H]3CN4)ccc2C1 [Example 155, 1-(2-((1S,4S)-2,5-diazabicyclo[2.2.1]heptan-2-yl)-7,8-dihydro-1,6-naphthyridin-6(5H)-yl)-2-cyclopentylethan-1-one]",–,–,63,–
"O=C(CC1CCCC1)N1CCc2nc(N3C[C@H]4C[C@@H]3CN4)ccc2C1 [Example 156, 1-(2-((1R,4R)-2,5-diazabicyclo[2.2.1]heptan-2-yl)-7,8-dihydro-1,6-naphthyridin-6(5H)-yl)-2-cyclopentylethan-1-one]",–,–,49,4
"O=S(=O)(Cc1ccc(F)cc1)N1CCc2nc(N3C4CCC3CNC4)ccc2C1 [Example 158, 2-(3,8-diazabicyclo[3.2.1]octan-8-yl)-6-((4-fluorobenzyl)sulfonyl)-5,6,7,8-tetrahydro-1,6-naphthyridine]",–,–,46,5
"O=S(=O)(Cc1ccc(F)cc1)N1CCc2nc(N3CCNCC3)ccc2C1 [Example 160, 6-((4-fluorobenzyl)sulfonyl)-2-(piperazin-1-yl)-5,6,7,8-tetrahydro-1,6-naphthyridine]",–,–,35,-4
"Cc1ncccc1-c1ccc2c(n1)CCN(C(=O)CC1CCCC1)C2 [Example 181, 2-cyclopentyl-1-(2-(2-methylpyridin-3-yl)-7,8-dihydro-1,6-naphthyridin-6(5H)-yl)ethan-1-one]",–,–,–,26
"Cc1cncc(-c2ccc3c(n2)CCN(C(=O)CC2CCCC2)C3)c1 [Example 182, 2-cyclopentyl-1-(2-(5-methylpyridin-3-yl)-7,8-dihydro-1,6-naphthyridin-6(5H)-yl)ethan-1-one]",–,–,–,50
